Measurements published in patent US20240025862A1, “SUBSTITUTED N-PHENYLURACILS AND SALTS THEREOF, AND USE THEREOF AS HERBICIDAL ACTIVE SUBSTANCES” (Bayer Aktiengesellschaft, priority 2020, published 2024).

Key:
Assay type in all cases: in vivo
[1] = test system: Oryza sativa (ORYSA); assay: Post-emergence crop plant compatibility, greenhouse pot test (also comparative test C); details: for Post-emergence action against ORYSA (crop plant compatibility): vs untreated controls
Method in brief: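 Visual damage versus untreated plants (0% = like control, 100% = plants died) was scored about 3 weeks after a post-emergence spray in greenhouse pots. Treatment: one-leaf stage, WP or EC in water at 600 l/ha with 0.5% additive; a/b/c mark different dosages on the same crop.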

[2] = test system: Avena fatua (AVEFA); assay: Post-emergence herbicidal action, greenhouse pot test; details: 20 g/ha, rated visually after about 3 weeks vs untreated controls, 100% = plants have died
Method in brief: (§1)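 Activity was scored by eye about 3 weeks after treatment against untreated plants, where 100% means dead plants and 0% means no difference. Plants at the one-leaf stage received a foliar spray of WP or EC formulations in water plus 0.5% additive (600 l/ha, up to 20 g/ha). Plants were grown in sandy loam pots in a greenhouse for 2–3 weeks before spraying.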

[3] = test system: Amaranthus retroflexus (AMARE); assay: as above; details: rated visually after about 3 weeks vs untreated controls, 100% = plants have died
Method in brief: as §1

[4] = test system: Abutilon theophrasti (ABUTH); assay: as above; details: rated visually after about 3 weeks vs untreated controls, 100% = plants have died
Method in brief: as §1

[5] = test system: Veronica persica (VERPE); assay: as above
Method in brief: as §1

[6] = test system: Viola tricolor (VIOTR); assay: as above
Method in brief: as §1

[7] = test system: Pharbitis purpurea (PHBPU); assay: as above
Method in brief: as §1

[8] = test system: Polygonum convolvulus (POLCO); assay: as above
Method in brief: as §1

[9] = test system: Setaria viridis (SETVI); assay: Post-emergence herbicidal action, greenhouse pot test (also comparative test C); details: for Post-emergence action against SETVI: 20 g/ha
Method in brief: (§2)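 Greenhouse pot plants in sandy loam were sprayed post-emergence at the one-leaf stage (2–3 weeks after sowing) with WP or EC formulations plus 0.5% additive at 600 l/ha water. Activity was rated visually after about 3 weeks versus untreated controls (100% = dead, 0% = like control); rates were 20 g/ha or less, and 5 g/ha or less in the comparative test.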

[10] = test system: Echinochloa crus-galli (ECHCG); assay: as above
Method in brief: as §2

[11] = test system: Matricaria inodora (MATIN); assay: as above
Method in brief: as §2

[12] = test system: Alopecurus myosuroides (ALOMY); assay: as above; details: rated visually after about 3 weeks vs untreated controls, 100% = plants have died
Method in brief: as §2

[13] = test system: Triticum aestivum (TRZAS); assay: Post-emergence crop plant compatibility, greenhouse pot test; details: vs untreated controls
Method in brief: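 Compatibility was scored as visual % effect against untreated controls about 3 weeks after spraying green plant parts at the one-leaf stage. Formulations (WP/EC) were applied in aqueous form with 0.5% additive, 600 l/ha, to greenhouse-grown pot plants.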

Post-emergence action against ORYSA (crop plant compatibility) ([1]; 1.25 g/ha) [%] | SMILES | Post-emergence action at 20 g/ha against AVEFA in % [2] [%] | Post-emergence action at 1.25 g/ha against AMARE in % [3] [%] | Post-emergence action at 5 g/ha against AMARE in % [3] [%] | Post-emergence action at 20 g/ha against AMARE in % [3] [%] | Post-emergence action at 5 g/ha against ABUTH in % [4] [%] | Post-emergence action at 20 g/ha against ABUTH in % [4] [%] | Post-emergence action against VERPE ([5]; 5 g/ha) [%] | Post-emergence action against VERPE ([5]; 20 g/ha) [%] | Post-emergence action against VIOTR ([6]; 1.25 g/ha) [%] | Post-emergence action against VIOTR ([6]; 5 g/ha) [%] | Post-emergence action against VIOTR ([6]; 20 g/ha) [%] | Post-emergence action against PHBPU in % ([7]; dosage 5 g/ha) [%] | Post-emergence action against PHBPU in % ([7]; dosage 20 g/ha) [%] | Post-emergence action against POLCO in % ([8]; dosage 5 g/ha) [%] | Post-emergence action against POLCO in % ([8]; dosage 20 g/ha) [%] | Post-emergence action against SETVI [9] [%] | Post-emergence action against SETVI in % ([9]; dosage 1.25 g/ha) [%] | Post-emergence action against SETVI in % ([9]; dosage 5 g/ha) [%] | Post-emergence action against ECHCG in % ([10]; dosage 5 g/ha) [%] | other results
0 | Cn1c(C(F)(F)F)cc(=O)n(-c2cc(Oc3ccccc3OCC(=O)OCC[N+](=O)[O-])c(Br)cc2F)c1=O [I.8-183] | 100 | 100 | 100 | 100 | 100 | 100 | 100 | 100 | 100 | 100 | 100 | 100 | 100 | 100 | 100 | 100 | 100 | 100 | 100 | Post-emergence action against ORYSA (crop plant compatibility) ([1]; 5 g/ha): 0%; Post-emergence action against ORYSA in % ([1]; 20 g/ha, crop plant compatibility): 0%; Post-emergence action against ECHCG in % ([10]; dosage 20 g/ha): 100%; Post-emergence action against MATIN in % ([11]; dosage 5 g/ha): 80%; Post-emergence action against MATIN in % ([11]; dosage 20 g/ha): 100%; Post-emergence action at 5 g/ha against ALOMY in % [12]: 80%; Post-emergence action at 20 g/ha against ALOMY in % [12]: 100%; Post-emergence action against TRZAS (crop plant compatibility) ([13]; 1.25 g/ha): 0%; Post-emergence action against TRZAS (crop plant compatibility) ([13]; 5 g/ha): 20%
0 | CCOCCOC(=O)COc1ccccc1Oc1cc(-n2c(=O)cc(C(F)(F)F)n(C)c2=O)c(F)cc1C#N [I.9-2] | 90 | 100 | 100 | 100 | 100 | 100 | 100 | 100 | 100 | 100 | 100 | 100 | 100 | 100 | 100 | 100 | 100 | 100 | 100 | Post-emergence action at 1.25 g/ha against ABUTH in % ([4]; 1.25 g/ha): 100%; Post-emergence action against VERPE ([5]; 1.25 g/ha): 100%; Post-emergence action against PHBPU in % ([7]; dosage 1.25 g/ha): 100%; Post-emergence action at 1.25 g/ha against ECHCG in % ([10]; 1.25 g/ha, rated visually after about 3 weeks vs untreated controls, 100% = plants have died): 80%; Post-emergence action against ECHCG in % ([10]; dosage 20 g/ha): 100%; Post-emergence action against MATIN in % ([11]; dosage 5 g/ha): 100%; Post-emergence action against MATIN in % ([11]; dosage 20 g/ha): 100%; Post-emergence action at 5 g/ha against ALOMY in % [12]: 80%; Post-emergence action at 20 g/ha against ALOMY in % [12]: 100%; Post-emergence action against TRZAS (crop plant compatibility) ([13]; 1.25 g/ha): 20%
